Source: US9908893B2 (Latvian Institute of Organic Synthesis, priority 2013, dated 2018)

What was measured:
[1] = molecular target: P-glycoprotein (P-gp) (Homo sapiens, UniProt P08183); experiment: Measurement of P-glycoprotein activity: rhodamine 123 accumulation in MES-SA and MES-SA/Dx5 cells; conditions: for inhibition of MDR transport proteins (P-gp, MRP1, BCRP1), summary in words: summary of the P-gp, MRP1 and BCRP1 efflux assays; for MDR, EC50, P-gp: rhodamine 123 accumulation, doxorubicin resistant MES-SA/Dx5 cells
P-glycoprotein (P-gp), sequence (P08183 whole entry): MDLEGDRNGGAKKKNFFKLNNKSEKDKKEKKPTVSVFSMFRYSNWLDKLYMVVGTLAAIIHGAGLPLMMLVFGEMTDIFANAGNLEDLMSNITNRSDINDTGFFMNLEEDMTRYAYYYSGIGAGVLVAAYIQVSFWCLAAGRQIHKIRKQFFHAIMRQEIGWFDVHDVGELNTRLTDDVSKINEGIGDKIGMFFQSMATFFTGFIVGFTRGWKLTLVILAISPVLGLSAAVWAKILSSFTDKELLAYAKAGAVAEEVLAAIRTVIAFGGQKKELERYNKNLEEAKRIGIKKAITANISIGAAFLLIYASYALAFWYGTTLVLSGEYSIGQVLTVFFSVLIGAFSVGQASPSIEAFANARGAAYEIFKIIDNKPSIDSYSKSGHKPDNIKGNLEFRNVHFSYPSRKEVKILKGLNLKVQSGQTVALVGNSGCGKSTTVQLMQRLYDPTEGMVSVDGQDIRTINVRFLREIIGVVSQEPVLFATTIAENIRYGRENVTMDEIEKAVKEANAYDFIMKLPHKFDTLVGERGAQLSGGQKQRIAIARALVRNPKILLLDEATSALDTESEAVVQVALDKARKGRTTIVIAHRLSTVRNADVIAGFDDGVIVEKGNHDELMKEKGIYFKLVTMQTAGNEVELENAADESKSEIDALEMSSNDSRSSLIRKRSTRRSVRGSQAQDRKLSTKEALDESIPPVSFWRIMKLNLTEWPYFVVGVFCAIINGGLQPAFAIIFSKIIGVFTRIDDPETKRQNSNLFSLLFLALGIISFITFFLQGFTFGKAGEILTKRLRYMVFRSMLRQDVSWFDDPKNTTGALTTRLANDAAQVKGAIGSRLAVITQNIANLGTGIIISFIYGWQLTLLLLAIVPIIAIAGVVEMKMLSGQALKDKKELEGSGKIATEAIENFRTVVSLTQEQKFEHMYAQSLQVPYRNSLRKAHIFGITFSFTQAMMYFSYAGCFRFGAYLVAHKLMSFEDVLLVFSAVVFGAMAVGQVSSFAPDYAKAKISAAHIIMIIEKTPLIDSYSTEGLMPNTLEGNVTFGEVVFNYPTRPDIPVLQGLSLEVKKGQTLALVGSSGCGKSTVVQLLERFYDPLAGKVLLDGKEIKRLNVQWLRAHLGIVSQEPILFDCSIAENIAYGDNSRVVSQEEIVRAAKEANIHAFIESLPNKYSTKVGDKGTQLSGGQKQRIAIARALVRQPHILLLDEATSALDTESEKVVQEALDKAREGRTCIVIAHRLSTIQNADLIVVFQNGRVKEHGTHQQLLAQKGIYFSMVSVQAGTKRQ
Protocol: (§1) Thieno[2,3-b]pyridines of the formula (I) were tested to reveal MDR-blocking activity.
About 50,000 cells/well of the human uterine sarcoma cell line MESSA and MES-SA/Dx5 were seeded into the 96-well plates and incubated for 24 h. The MDR modulators were incubated with the cells for 15 min. […] The EC50 values were calculated using the program Graph Pad Prism® 4.0.

[2] = test system: A7R5 (rat aorta smooth muscle) cells; experiment: Intracellular Ca2+ measurements, Fluo-4 NW Calcium Assay Kit, KCl-induced [Ca2+]i increase; assay type: cell-based; conditions: for IC50: Rattus norvegicus, A7R5, read-out: Ca^2+ A7R5, IC50; for Ca^2+ antagonist effect compared with Verapamil: relative to Verapamil; for Ca^2+ antagonist effect compared with Verapamil / Ca^2+ A7R5, IC50: A7R5 cells; for Ca^2+ A7R5, IC50: KCl (50 mM) induced [Ca2+]i increase, compounds 0.8 to 100 μM
Protocol: Changes in intracellular [Ca^2+] concentration were studied using A7R5 (rat aorta smooth muscle) cells and Fluo-4 NW Calcium Assay Kit (“Invitrogen”, Sweden) according to manufacturer's instructions.
Changes in intracellular [Ca^2+]i concentration were studied using Fluo-4 NW Calcium Assay Kit (“Invitrogen”, Sweden) accordingly to manufacturer's instructions. The A7R5 (rat aorta smooth muscle) cells were grown at 37° C. in a humidified atmosphere with 5% CO2/95% air in DMEM medium containing 2 mM glutamine and supplemented with 10% FBS. The cells were seeded into 96 well plate at 10,000 cells/well and incubated for 72 h. The cells were loaded with […] for 45 min. The Fura-4NW loaded cells were pre-incubated in the dark for 15 minutes with tested compounds at concentrations from 0.8 to 100 μM. Then A7R5 cells were pre-treated with 1.5 mM CaCl2 for 5 minutes and KCl (50 mM) was added to A7R5 cells to induce [Ca^2+]i increase. Amlodipine, the well-known calcium channel inhibitor was used as the positive control.

[3] = Basal toxicity test, neutral red, alternative LD50 calculated from IC50; conditions: mouse, LD50, alternative LD50 calculated by formula from IC50 in NIH 3T3 cells
Protocol: A low therapeutic index of chemotherapy agents is due to affecting not only cancer formation but also normal cells.
9,000 NIH 3T3 cells/well were placed into 96-well plates for 24 h and then exposed to the test compound over a range of eight concentration (1-1000 μg/ml) for 24 h. Upon that, the cells were incubated with the neutral red dye for 4 h and then OD was determined at 540 nm. […] The IC50 values were calculated using the program Graph Pad Prism® 4.0

[4] = molecular target: MRP1 (Homo sapiens, UniProt P33527); experiment: cell-based; conditions: for MDR, EC50, MRP1: calcein AM assay, DOX resistant H69AR cells
MRP1, sequence (P33527 whole entry): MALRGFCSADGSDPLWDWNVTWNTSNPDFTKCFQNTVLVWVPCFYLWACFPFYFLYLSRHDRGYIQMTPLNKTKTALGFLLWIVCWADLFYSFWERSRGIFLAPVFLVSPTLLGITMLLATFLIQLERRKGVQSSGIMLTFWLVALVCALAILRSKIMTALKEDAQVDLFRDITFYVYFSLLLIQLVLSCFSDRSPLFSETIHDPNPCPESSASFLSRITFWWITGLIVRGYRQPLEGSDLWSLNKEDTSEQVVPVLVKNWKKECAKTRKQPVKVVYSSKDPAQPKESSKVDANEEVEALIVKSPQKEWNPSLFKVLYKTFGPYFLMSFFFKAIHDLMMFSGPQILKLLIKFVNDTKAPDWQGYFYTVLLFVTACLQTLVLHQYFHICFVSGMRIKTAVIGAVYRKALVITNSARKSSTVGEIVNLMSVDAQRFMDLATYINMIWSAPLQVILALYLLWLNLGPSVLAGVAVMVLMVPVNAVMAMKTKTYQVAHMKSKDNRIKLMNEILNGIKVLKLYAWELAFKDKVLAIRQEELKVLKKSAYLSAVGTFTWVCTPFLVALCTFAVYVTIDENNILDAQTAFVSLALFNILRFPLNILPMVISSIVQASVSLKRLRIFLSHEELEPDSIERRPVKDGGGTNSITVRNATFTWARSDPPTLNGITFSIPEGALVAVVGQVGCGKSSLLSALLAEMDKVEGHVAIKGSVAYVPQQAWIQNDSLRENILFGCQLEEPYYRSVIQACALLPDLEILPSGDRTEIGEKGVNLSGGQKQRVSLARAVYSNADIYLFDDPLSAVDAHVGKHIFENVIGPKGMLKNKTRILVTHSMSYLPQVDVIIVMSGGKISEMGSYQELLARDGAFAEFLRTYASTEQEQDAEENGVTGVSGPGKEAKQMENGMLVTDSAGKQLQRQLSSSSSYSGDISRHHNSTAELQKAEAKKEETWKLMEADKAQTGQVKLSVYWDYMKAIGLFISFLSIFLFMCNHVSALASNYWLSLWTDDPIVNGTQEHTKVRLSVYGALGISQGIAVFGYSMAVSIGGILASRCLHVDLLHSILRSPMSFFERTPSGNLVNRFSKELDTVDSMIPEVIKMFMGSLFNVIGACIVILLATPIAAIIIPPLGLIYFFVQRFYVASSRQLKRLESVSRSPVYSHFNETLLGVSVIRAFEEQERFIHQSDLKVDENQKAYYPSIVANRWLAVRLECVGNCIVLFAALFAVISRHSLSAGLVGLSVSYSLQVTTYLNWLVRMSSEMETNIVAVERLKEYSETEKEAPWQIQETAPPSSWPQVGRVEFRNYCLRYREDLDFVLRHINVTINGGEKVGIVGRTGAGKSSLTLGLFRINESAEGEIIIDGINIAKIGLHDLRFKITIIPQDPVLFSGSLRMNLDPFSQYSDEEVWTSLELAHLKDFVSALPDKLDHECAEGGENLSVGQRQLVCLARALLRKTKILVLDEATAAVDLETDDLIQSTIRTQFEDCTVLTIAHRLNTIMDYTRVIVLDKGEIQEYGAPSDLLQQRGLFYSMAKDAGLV
Protocol: as §1
About 60,000 cells/well of the human lung carcinoma cell line H69 and H69AR were seeded into the 96-well plates and incubated for 24 h. The compounds were incubated with the cells for 15 min. […] The EC50 values was calculated using the program Graph Pad Prism® 4.0

[5] = molecular target: T1, BCRP1 (Homo sapiens, UniProt Q9UNQ0); experiment: cell-based; conditions: for MDR, EC50, BCRP1: Hoechst 33342, mitoxantrone resistant MES-SA/MX2 cells
T1 sequence (Q9UNQ0 1-655): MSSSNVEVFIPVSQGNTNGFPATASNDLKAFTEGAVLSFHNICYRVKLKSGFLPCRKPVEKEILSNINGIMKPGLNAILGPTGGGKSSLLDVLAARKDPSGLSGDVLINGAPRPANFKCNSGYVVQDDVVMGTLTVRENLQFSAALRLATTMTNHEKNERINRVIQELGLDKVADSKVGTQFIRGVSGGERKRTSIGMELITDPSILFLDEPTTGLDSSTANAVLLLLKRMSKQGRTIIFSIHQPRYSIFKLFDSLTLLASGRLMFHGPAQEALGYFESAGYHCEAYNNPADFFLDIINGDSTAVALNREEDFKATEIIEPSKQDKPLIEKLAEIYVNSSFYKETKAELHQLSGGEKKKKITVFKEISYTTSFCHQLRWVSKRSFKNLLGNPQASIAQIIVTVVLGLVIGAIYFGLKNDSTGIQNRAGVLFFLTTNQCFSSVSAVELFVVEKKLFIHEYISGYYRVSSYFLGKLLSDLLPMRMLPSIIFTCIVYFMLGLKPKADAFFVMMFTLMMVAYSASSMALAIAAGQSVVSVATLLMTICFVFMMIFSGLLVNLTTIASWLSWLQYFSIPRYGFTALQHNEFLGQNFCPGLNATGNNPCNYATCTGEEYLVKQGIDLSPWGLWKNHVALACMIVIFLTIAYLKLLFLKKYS
Protocol: as §1
About 50,000 cells/well of the MESSA and MES-SA/MX2 were seeded into the 96-well plates and incubated for 24 h. The MDR modulators were incubated with the cells for 15 min. […] The EC50 values were calculated using the program Graph Pad Prism® 4.0

COC(=O)c1c(C)nc2sc(C(=O)c3ccc(OC)cc3)c(N)c2c1-c1cc(OC)c(OC)c(OC)c1 [Compound 10, 3-Amino-2-(4-methoxybenzoyl)-6-methyl-4-(3,4,5-trimethoxyphenyl)thieno[2,3-b]pyridine-5-carboxylic acid methyl ester]
inhibition of MDR transport proteins (P-gp, MRP1, BCRP1), summary in words [1]: inhibit three MDR transport proteins: P-gp, MRP1 and BCRP1 | IC50 [2]: 9 ± 0.7 µM | Ca^2+ antagonist effect compared with Verapamil [2]: more than ten times lower | LD50 at 24 h [3]: > 2000 mg/kg

COC(=O)c1c(C)nc2sc(C(=O)c3ccc(OC)cc3OC)c(N)c2c1-c1cc(OC)c(OC)c(OC)c1 [Compound 11, 3-Amino-2-(2,4-dimethoxybenzoyl)-6-methyl-4-(3,4,5-trimethoxyphenyl)thieno[2,3-b]pyridine-5-carboxylic acid methyl ester]
inhibition of MDR transport proteins (P-gp, MRP1, BCRP1), summary in words [1]: inhibit three MDR transport proteins: P-gp, MRP1 and BCRP1 | IC50 [2]: 18 ± 1 µM | Ca^2+ antagonist effect compared with Verapamil [2]: more than ten times lower | LD50 at 24 h [3]: > 2000 mg/kg

CCOC(=O)c1c(C)nc2sc(C(=O)c3ccc(OC)cc3)c(N)c2c1-c1ccc(N(C)C)cc1 [Compound 29, 3-Amino-4-(4-dimethylaminophenyl)-2-(4-methoxybenzoyl)-6-methylthieno[2,3-b]-pyridine-5-carboxylic acid ethylester]
inhibition of MDR transport proteins (P-gp, MRP1, BCRP1), summary in words [1]: selectively inhibit P-gp and BCRP1 | IC50 [2]: 35 ± 3 µM | LD50 at 24 h [3]: > 2000 mg/kg

CCCCOC(=O)c1c(C)nc2sc(C(=O)c3ccc(OC)cc3)c(N)c2c1-c1cc(OC)c(OC)c(OC)c1 [Compound 30, 3-Amino-2-(4-methoxybenzoyl)-6-methyl-4-(3,4,5-trimethoxyphenyl)thieno[2,3-b]-pyridine-5-carboxylic acid butyl ester]
IC50 [2]: 5 ± 0.7 µM | LD50 at 24 h [3]: > 2000 mg/kg

COCCOC(=O)c1c(C)nc2sc(C(=O)c3ccc(OC)cc3)c(N)c2c1-c1ccc(OC)cc1 [Compound 31, 3-Amino-2-(4-methoxybenzoyl)-4-(4-methoxyphenyl)-6-methylthieno[2,3-b]-pyridine-5-carboxylic acid 2-methoxyethyl ester]
IC50 [2]: 21 ± 4 µM | LD50 at 24 h [3]: > 2000 mg/kg

COCCOC(=O)c1c(C)nc2sc(C(=O)c3ccccc3)c(N)c2c1-c1cc(OC)c(OC)c(OC)c1 [Compound 32, 3-Amino-2-benzoyl-6-methyl-4-(3,4,5-trimethoxyphenyl)thieno[2,3-b]pyridine-5-carboxylic acid 2-methoxyethyl ester]
IC50 [2]: 2.2 ± 0.3 µM | Ca^2+ antagonist effect compared with Verapamil [2]: more than ten times lower | LD50 at 24 h [3]: > 2000 mg/kg

COCCOC(=O)c1c(C)nc2sc(C(=O)c3cccc(OC)c3)c(N)c2c1-c1cc(OC)c(OC)c(OC)c1 [Compound 33, 3-Amino-2-(3-methoxybenzoyl)-6-methyl-4-(3,4,5-trimethoxyphenyl)thieno[2,3-b]-pyridine-5-carboxylic acid 2-methoxyethyl ester]
inhibition of MDR transport proteins (P-gp, MRP1, BCRP1), summary in words [1]: selectively inhibit P-gp and BCRP1 | IC50 [2]: 6.2 ± 0.7 µM | LD50 at 24 h [3]: > 2000 mg/kg

COCCOC(=O)c1c(C)nc2sc(C(=O)c3ccc(OC)cc3)c(N)c2c1-c1cc(OC)c(OC)c(OC)c1 [Compound 34, 3-Amino-2-(4-methoxybenzoyl)-6-methyl-4-(3,4,5-trimethoxyphenyl)thieno[2,3-b]-pyridine-5-carboxylic acid 2-methoxyethyl ester]
IC50 [2]: 3.1 ± 0.4 µM | Ca^2+ antagonist effect compared with Verapamil [2]: more than ten times lower | LD50 at 24 h [3]: > 2000 mg/kg

COCCOC(=O)c1c(C)nc2sc(C(=O)c3ccc(OC)cc3OC)c(N)c2c1-c1cc(OC)c(OC)c(OC)c1 [Compound 35, 3-Amino-2-(2,4-dimethoxybenzoyl)-6-methyl-4-(3,4,5-trimethoxyphenyl)-thieno[2,3-b]pyridine-5-carboxylic acid 2-methoxyethyl ester]
IC50 [2]: 9 ± 1 µM | Ca^2+ antagonist effect compared with Verapamil [2]: more than ten times lower | LD50 at 24 h [3]: > 2000 mg/kg

CCOC(=O)c1c(-c2cc(OC)c(OC)c(OC)c2)nc2sc(C(=O)c3ccc(OC)cc3)c(N)c2c1-c1cc(OC)c(OC)c(OC)c1 [Compound 39, 3-Amino-4,6-bis-(3,4,5-trimethoxyphenyl)-2-(4-methoxybenzoyl)thieno[2,3-b]-pyridine-5-carboxylic acid ethyl ester]
Ca^2+ A7R5, IC50 [2]: No effect | LD50 at 24 h [3]: > 2000 mg/kg

CCOC(=O)c1c(-c2cc(OC)c(OC)c(OC)c2)nc2sc(C(=O)c3cc(OC)c(OC)c(OC)c3)c(N)c2c1-c1cc(OC)c(OC)c(OC)c1 [Compound 40, 3-Amino-4,6-bis-(3,4,5-trimethoxyphenyl)-2-(3,4,5-trimethoxybenzoyl)-thieno[2,3-b]pyridine-5-carboxylic acid ethyl ester]
Ca^2+ A7R5, IC50 [2]: No effect | LD50 at 24 h [3]: > 2000 mg/kg

COC(=O)c1c(C)nc2sc(C(=O)c3ccc4ccccc4c3)c(N)c2c1-c1cc(OC)c(OC)c(OC)c1 [Compound 41, 3-Amino-6-methyl-2-(naphthalene-2-carbonyl)-4-(3,4,5-trimethoxyphenyl)-thieno[2,3-b]pyridine-5-carboxylic acid methyl ester]
EC50 [1]: 10.5 ± 0.7 µM | MDR, EC50, MRP1 [4]: No effect | EC50 [5]: 800 ± 200 nM | IC50 [2]: 18 ± 1.4 µM | LD50 at 24 h [3]: > 2000 mg/kg

CCOC(=O)c1c(C)nc2sc(C(=O)c3ccc(OC)cc3)c(N)c2c1-c1ccc2c(c1)OCO2 [Compound 42, 3-Amino-4-(benzo[1,3]dioxol-5-yl)-2-(4-methoxybenzoyl)-6-methylthieno[2,3-b]-pyridine-5-carboxylic acid ethyl ester]
EC50 [1]: 20.4 ± 0.1 µM | EC50 [4]: 24.8 ± 1.2 µM | EC50 [5]: 2300 ± 400 nM | IC50 [2]: 18 ± 1 µM | LD50 at 24 h [3]: 2010 mg/kg

CCOC(=O)c1c(C)nc2sc(C(=O)c3ccc(OC)cc3)c(N)c2c1-c1ccco1 [Compound 43, 3-Amino-4-(furan-2-yl)-2-(4-methoxybenzoyl)-6-methylthieno[2,3-b]pyridine-5-carboxylic acid ethyl ester]
MDR, EC50, P-gp [1]: No effect | MDR, EC50, MRP1 [4]: No effect | MDR, EC50, BCRP1 [5]: No effect

COc1cc(-c2cc(-c3cc(OC)c(OC)c(OC)c3)c3c(N)c(C(=O)c4ccc(Cl)cc4)sc3n2)cc(OC)c1OC [Compound 47, 3-Amino-4,6-bis-(3,4,5-trimethoxyphenyl)-2-(4-chlorobenzoyl)thieno[2,3-b]-pyridine]
EC50 [1]: 31.4 ± 0.8 µM | MDR, EC50, MRP1 [4]: No effect | EC50 [5]: 14500 ± 3500 nM | LD50 at 24 h [3]: > 2000 mg/kg

COc1ccc(C(=O)c2sc3nc(-c4cc(OC)c(OC)c(OC)c4)cc(-c4cc(OC)c(OC)c(OC)c4)c3c2N)cc1 [Compound 48, 3-Amino-4,6-bis-(3,4,5-trimethoxyphenyl)-2-(4-methoxybenzoyl)thieno[2,3-b]-pyridine]
EC50 [1]: 32.5 ± 2.1 µM | MDR, EC50, MRP1 [4]: No effect | MDR, EC50, BCRP1 [5]: No effect | Ca^2+ A7R5, IC50 [2]: No effect | LD50 at 24 h [3]: 3080 mg/kg

CN(C)C(=O)CCSC(SCCC(=O)O)c1cccc(/C=C/c2ccc3ccc(Cl)cc3n2)c1 (centres unmarked) [MK-571, reference compound]
MDR, EC50, P-gp [1]: No effect | Ca^2+ A7R5, IC50 [2]: No effect | LD50 at 24 h [3]: 752 mg/kg
